Measurements reported in patent publication US20170058348A1, “Predictive mRNA Biomarkers for the Prediction of the Treatment with Methotrexate (MTX)” (Charité - Universitätsmedizin Berlin, priority 2014, published 2017).
Values joined by “and” are separate entries in the source; they are usually repeats but may differ in a detail not shown here. Equal values may be shown once.

What was measured:
[1] = tested on: patients with a clinically confirmed RA; test: Clinical response to MTX therapy in RA patients (DAS28, EULAR criteria); assay type: in vivo, human; conditions: Health Assessment Questionnaire; one line per individual RA patient; during MTX treatment
Procedure: […] patients with a clinically confirmed RA were examined in the series of tests for the identification and definition of biomarkers for therapy prediction with MTX. In this regard, 5 ml of whole blood was taken from the patients in 2 PAXgene tubes (PreAnalytiX, Hombrechtikon, Switzerland) and turned for 24 hours on an overhead roller at 20° C. (20 rpm); afterwards, they were frozen at −20° C. until worked up. The patient samples were acquired in the context of two clinical studies under standard conditions (HitHard study; n=29; own clinical study; n=22) and after authorization by the ethics commission of the charity, as well as the agreement of the patients. The clinical data, prior to MTX therapy and over the course of >1 year, were stored in the context of the study conditions in a clinical database in accordance with ISO 9001 standard guidelines. The calculation of the assessment of the MTX response before and during the therapy periods was carried out in accordance with the guidelines from the European League Against Rheumatism (ELUAR) using the “Disease Activity Score” considering 28 joints (DAS28; (van Gestel et al, 1999)). The MTX therapy response was classified, in accordance with the guidelines, into the following three groups: responders (R), moderate responders (MR) and non-responders (NR). […]

RA patients = conditions: after a year (Furst 1996); cited from earlier work

**Q.** For CN(Cc1cnc2nc(N)nc(N)c2n1)c1ccc(C(=O)N[C@@H](CCC(=O)O)C(=O)O)cc1 [MTX, methotrexate], which HAQ [1] is on record?
**A.** The HAQ was 0.6 (2×) and 0.8 and 1.3 (3×) and 0.3 (3×) and 0.0 (3×) and 0.1 (4×) and 1.0 (2×) and 0.5 (2×) and 0.75 and 1.1 (3×) and 0.4 and 1.4 and 0.9 and 1.5 and 1.9 and 2.3.

**Q.** And the sustained success rates (RA patients)?
**A.** The sustained success rates was 40-50%.
